Source: patent publication US4690940A, “Anti-hypertensive agents” (University of Miami, priority 1979, dated 1987)
Non-standard residues stand in square brackets, D forms with d. Residues, ends and D or L forms follow the SMILES beside them. No end group written: not given here. pGlu = O=C1CC[C@@H](C(=O)O)N1

How the values were obtained:
[1] = test system: ACE purified from human urine; assay: ACE activity assay (hydrolysis of Benzoyl-GlyHisLeu), I50 determination; type: biochemical; details: in vitro, pH 8.0, 37° C
Procedure: These factors include the source of enzyme, its purity, the substrate used and its concentration, and the composition of the assay buffer. All I50 data reported herein have been performed with the same assay system and same enzyme (human urinary ACE) and with an approximately 1/2Km level of substrate and are therefore internally consistent.
ACE activity assay. […] To initiate the assay, 40 μl of enzyme and 10 μl of water or inhibitor dissolved in water were preincubated for five minutes at 37° C. […] To terminate the reaction, 1 ml of 0.1M HCl was added, following which 1 ml of ethyl acetate was added. The mixture was agitated on a rotary mixer and centrifuged briefly to separate the phases.
An aliquot, 500 μl, of the ethyl acetate layer was transferred to a liquid scintillation vial containing 10 ml of Riafluor, trademark New England Nuclear Corporation, Boston, Massachusetts. For determination of I50 values, enzyme activity in the presence of inhibitor at a series of different concentrations was compared to activity in the absence of inhibitor.

[2] = test system: Blood Pressure Response to 400 ng/kg of Angiotensin I; assay: Oral effectiveness: blood pressure response to angiotensin I in anesthetized rats; type: in vivo, rat; details: 400 ng/kg angiotensin I, before drug
Procedure: (§1) Rats (210-290 g body weight) were fasted overnight and then anesthetized with intraperitoneal pentobarbital, 50-60 mg/kg. Tracheostomy was performed and the animals were ventilated mechanically. A cannula was inserted into a femoral vein for injection of angiotensin I, and a second cannula was inserted into a common carotid artery for direct measurement of arterial blood pressure. Heparin, 1,000 units, was injected via the femoral vein to prevent coagulation. Blood pressure was measured with a pressure transducer connected to a polygraph. The rats were injected with 400 ng/kg of angiotensin I in 20 μl of 0.9 g % NaCl; an amount of angiotensin I sufficient to raise mean arterial blood pressure by 39 mm Hg. […] At timed intervals, the effects of 400 ng/kg of angiotensin I on mean arterial blood pressure were tested.

[3] = test system: Blood Pressure Response to 400 ng/kg of Angiotensin I; assay: Intravenous effectiveness: blood pressure response to angiotensin I in anesthetized rats; type: in vivo, rat; details: 400 ng/kg angiotensin I, -5 minutes
Procedure: as §1
At time intervals, the effects of angiotensin I, 400 ng/kg, on mean arterial blood pressure were tested.

[4] = test system: ACE; details: competitive substrates; cited from earlier work
[5] = test system: ACE; details: disulfide formed by dimerization of SQ 14,225; believed; cited from earlier work

| IC50 [1] | Molecule | Km relative to angiotensin I [4] | other results |
| --- | --- | --- | --- |
| 0.025 µM | C[C@H](CSC(=O)[C@H](Cc1ccccc1)NC(=O)[C@H](CCCCNC(=O)OC(C)(C)C)NC(=O)C1CCCC1)C(=O)N1CCC[C@H]1C(=O)O [Example 17] |  |  |
|  | DRVYIHPFHL [angiotensin I] |  | rise of mean arterial blood pressure by angiotensin I [2]: 39 mm Hg; rise of mean arterial blood pressure by angiotensin I [3]: 39 mm Hg |
|  | RPPGFSPFR [bradykinin] | a lower Km than angiotensin I |  |
| 0.015 µM | C[C@H](CSC(=O)[C@H](Cc1ccccc1)NC(=O)[C@H](CCCCN)NC(=O)C1CCCC1)C(=O)N1CCC[C@H]1C(=O)O [Example 18, N^α -[3-(N^α -cyclopentylcarbonyl-L-lysyl-L-phenylalanylthio)2-D-methylpropanoyl]-L-proline] |  |  |
|  | C[C@H](CSSC[C@@H](C)C(=O)N1CCC[C@H]1C(=O)O)C(=O)N1CCC[C@H]1C(=O)O [disulfide] |  | inhibitory activity of dimer [5]: largely inactive as an inhibitor |
|  | C[C@H](NC(=O)[C@H](Cc1c[nH]c2ccccc12)NC(=O)[C@H](CCCCN)NC(=O)[C@@H]1CCC(=O)N1)C(=O)N1CCC[C@H]1C(=O)O [BPP5a, <GluLysTrpAlaPro] ([pGlu]KWAP-OH) | a lower Km than angiotensin I |  |
